Results taken from patent US6743586B2, “Rapid fluorescence detection of binding to nucleic acid drug targets labelled with highly fluorescent nucleotide base analogs” (The United States of America as represented by the …, priority 2001, dated 2004).
Read-outs that look alike come from different tables or passages of the source. *1 amine or outer side, *2 acyl side, *3 side chain or, on linkers, in order; H or OH if unused. Where no end group is shown, it is not given here. Suc = O=C(CCC(=O)[*:2])[*:1]

Tests used:
72AP-RRE-peptide complex = experiment: Competitive displacement: 72AP-RRE-peptide complex (1:1) titrated with Neomycin B, Dynafit fit; format: binding, HIV-1
Method: Quantitative analysis of the binding event indicates the rev peptide binds to 2-AP RRE with wild type affinity (KD˜13±2 nM). The fluorescent 72AP-RRE construct is also a useful probe for assaying small molecule binding to RRE, as well as determining if the small molecule is an effective inhibitor of the rev-RRE interaction. For example, it has been shown using the aminoglycoside Neomycin B, a known inhibitor of RRE-rev interaction, that the 72AP-RRE construct can be used to detect small molecule inhibition of the rev-RRE interaction. […]
The fluorescence of RNA oligonucleotide samples (150 μL), selectively labeled with 2-AP, was measured at 10° C. on a SPEX Fluoromax-2 spectrofluorometer (Instruments, SA, Edison, N.J.) using a 0.3 cm square cuvette. […] Emission spectra were recorded over the wavelength range of 330 to 450 nm with an excitation wavelength of 310 nm. […] The dissociation constant for rev binding to RRE-72AP was determined by following the increase in fluorescence at 370 nm as a fixed concentration of the fluorescent RNA was titrated with increasing amounts if rev. Similarly, the binding of aminoglycosides was followed by monitoring the change in 2-AP fluorescence as a fixed concentration of RRE-72AP or RRE-68AP was titrated with increasing amounts of the aminoglycoside. […]

68AP-RRE = experiment: 2-AP fluorescence titration of 68AP-RRE with aminoglycosides; format: binding, HIV-1
Method: For example, using the 68AP-RRE construct, three classes of binding sites for the Neomycin B can be detected.
The fluorescence of RNA oligonucleotide samples (150 μL), selectively labeled with 2-AP, was measured at 10° C. on a SPEX Fluoromax-2 spectrofluorometer (Instruments, SA, Edison, N.J.) using a 0.3 cm square cuvette. RRE sample concentration was typically 100 nM in either standard buffer A (140 mM NaCl, 5 mM KCl, 1 mM MgCl2, 1 mM CaCl2, and 20 mM HEPES [7.4 pH]) or buffer B (25 mM NaCl, 5 mM KCl and 1 mM Cacodylate [6.5 pH]). Emission spectra were recorded over the wavelength range of 330 to 450 nm with an excitation wavelength of 310 nm. The spectral bandpass was 5 nm for all spectra. The dissociation constant for rev binding to RRE-72AP was determined by following the increase in fluorescence at 370 nm as a fixed concentration of the fluorescent RNA was titrated with increasing amounts if rev. Similarly, the binding of aminoglycosides was followed by monitoring the change in 2-AP fluorescence as a fixed concentration of RRE-72AP or RRE-68AP was titrated with increasing amounts of the aminoglycoside. Single site binding of rev or aminoglycoside was fitted to Formula I: […]
where Fo and Ff are the initial and final fluorescence intensities, respectively, [RRE]tot is the total RRE concentration, and [L]tot is the total concentration of rev, aminoglycoside or other ligands. Aminoglycoside binding to multiple sites on RRE was modeled using the computer program Dynafit. Competitive displacement assays were performed to determine which aminoglycoside binding were inhibitory to rev binding. For these experiments, a solution of 2-AP labeled RRE was incubated with a fixed concentration of Neomycin B (or rev peptide), and the fluorescence change followed as increasing amounts of competing rev peptide (or Neomycin B) was added to the solution. The fluorescence emission intensities at 370 nm as a function of total added ligand concentration were fit to a given molecular mechanism by non-linear least squared regression using the computer program Dynafit.

RRE = settings: direct binding, highly specific for the RRE; read-out: KD of rev binding to RRE; cited from earlier work
72AP-RRE = experiment: 2-AP fluorescence titration of RRE-72AP with rev peptide; set-up: species or system HIV-1; settings: fluorescence at 370 nm, 10° C., wild type affinity, read-out: KD of rev peptide binding to 2-AP RRE
Method: The fluorescence of RNA oligonucleotide samples (150 μL), selectively labeled with 2-AP, was measured at 10° C. on a SPEX Fluoromax-2 spectrofluorometer (Instruments, SA, Edison, N.J.) using a 0.3 cm square cuvette. RRE sample concentration was typically 100 nM in either standard buffer A (140 mM NaCl, 5 mM KCl, 1 mM MgCl2, 1 mM CaCl2, and 20 mM HEPES [7.4 pH]) or buffer B (25 mM NaCl, 5 mM KCl and 1 mM Cacodylate [6.5 pH]). Emission spectra were recorded over the wavelength range of 330 to 450 nm with an excitation wavelength of 310 nm. The spectral bandpass was 5 nm for all spectra. The dissociation constant for rev binding to RRE-72AP was determined by following the increase in fluorescence at 370 nm as a fixed concentration of the fluorescent RNA was titrated with increasing amounts if rev. Similarly, the binding of aminoglycosides was followed by monitoring the change in 2-AP fluorescence as a fixed concentration of RRE-72AP or RRE-68AP was titrated with increasing amounts of the aminoglycoside. Single site binding of rev or aminoglycoside was fitted to Formula I:
F=−{(Fo−Ff)/2*[RRE]tot}{b−{square root over ((b^2−4[L]tot[RRE]tot))}}+Fo (1)
where Fo and Ff are the initial and final fluorescence intensities, respectively, [RRE]tot is the total RRE concentration, and [L]tot is the total concentration of rev, aminoglycoside or other ligands. […]

NC[C@@H]1O[C@H](O[C@H]2[C@@H](O)[C@H](O[C@@H]3[C@@H](O)[C@H](N)C[C@H](N)[C@H]3O[C@H]3O[C@H](CN)[C@@H](O)[C@H](O)[C@H]3N)O[C@@H]2CO)[C@H](N)[C@@H](O)[C@@H]1O [Neomycin B] showed a Kd (72AP-RRE-peptide complex; read-out: KD, first tight site) of ~230 nM, a Kd (72AP-RRE-peptide complex; read-out: KD, second site, competitive with rev) of ~1900 nM and a Kd (68AP-RRE; 68AP-RRE construct, read-out: KD, first site, non-inhibitory to rev binding) of 240 ± 40 nM. It also gave a Kd (68AP-RRE; 68AP-RRE construct, read-out: KD, second site, inhibited rev binding in a competitive fashion) of 1800 ± 80 nM and a Kd (68AP-RRE; 68AP-RRE construct, read-out: KD, third class of sites, non-specific binding) of ~40000 nM.
In the case of “rev: HIV-1 regulatory protein rev that binds the rev-responsive element (RRE)”, the Kd (RRE) is given as 1 to 3 nM.
For [H]/N=C(/N)N[C@H]1[C@H](O)[C@@H](O)[C@H](O[C@@H]2O[C@@H](C)[C@](O)(C=O)[C@H]2O[C@@H]2O[C@@H](CO)[C@H](O)[C@@H](O)[C@@H]2NC)[C@@H](N/C(N)=N\[H])[C@@H]1O [Streptomycin], the Kd (68AP-RRE; RRE, reported alongside the 68AP-RRE data, read-out: KD, low affinity binding interaction with RRE) was 1500 nM.
Suc-TRQARRNRRWRERQRAAAK [rev peptide] showed a Kd (72AP-RRE) of ~13 nM.
